The text below walks through data of EP1939191A1, “Furan derivatives, method of synthesis and uses thereof” (Neuropharma S.A., priority 2006, dated 2008).

For this test, the target named is Recombinant human glycogen synthase kinase 3 beta (Homo sapiens, UniProt P49841). The test can be described thus: GSK-3 beta inhibition assay (33P-ATP, GS-2 peptide substrate, phosphocellulose filter counting). The test is classed as biochemical. Particulars: result in percentage of enzyme activity (lower = more inhibition); for activity at 50 µM: test compound at 50µM; for activity at 25 µM: test compound at 25µM. On the procedure: The GSK-3 beta activity of the compounds of formula (I) according to the present invention was determined by incubation of a mixture of recombinant human GSK-3 enzyme, a phosphate source and GSK-3 substrate in the presence and in the absence of the corresponding test compound, and by measuring the GSK-3 activity of this mixture. The compounds where tested at final concentrations of 25 and 50 µM.
Recombinant human glycogen synthase kinase 3 beta was assayed in MOPS 8 mM pH 7.3, EDTA 0.2 mM, MgCl2 10 mM and sodium orthovanadate 0.25 mM in the presence of 62.5 µM of Phospho-Glycogen Synthase Peptide-2 (GS-2), 0.5 µCi gamma-^33P-ATP and unlabelled ATP at a final concentration of 12.5 µM. The final assay volume was 20 µl. After incubation for 30 minutes at 30 °C, 15 µl aliquots were spotted onto P81 phosphocellulose papers. Filters were washed four times for at least 10 minutes each and counted with 1.5 ml of scintillation cocktail in a scintillation counter.
The compounds of formula (I) of the present invention where submitted to the above indicated assays, in order to determine both their GSK-3 inhibition activity and BACE activity inhibition. The results are indicated in Table I, in percentage of the respective enzyme activity.

The structures appear in SMILES notation.

Chain of Recombinant human glycogen synthase kinase 3 beta (P49841 whole entry): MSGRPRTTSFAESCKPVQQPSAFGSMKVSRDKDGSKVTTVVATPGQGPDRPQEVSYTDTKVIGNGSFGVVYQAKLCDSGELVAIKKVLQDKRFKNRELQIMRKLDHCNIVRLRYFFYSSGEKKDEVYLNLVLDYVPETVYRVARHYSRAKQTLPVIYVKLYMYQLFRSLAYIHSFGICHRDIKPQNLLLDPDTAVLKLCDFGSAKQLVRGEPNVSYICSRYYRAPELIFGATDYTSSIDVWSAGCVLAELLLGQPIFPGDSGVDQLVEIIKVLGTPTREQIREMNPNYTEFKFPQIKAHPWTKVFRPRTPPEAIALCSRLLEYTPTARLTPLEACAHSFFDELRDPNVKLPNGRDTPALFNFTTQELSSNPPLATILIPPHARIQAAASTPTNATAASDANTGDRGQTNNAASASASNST

In the case of `CC(C)(C)[Si](OCCCCCCc1ccco1)(c1ccccc1)c1ccccc1` [tert-Butyl-(6-furan-2-yl-hexyloxy)-diphenyl-silane], the activity at 50 µM was determined as 5.08%.

Take `CC(=CC=CC(C)CCCO[Si](c1ccccc1)(c1ccccc1)C(C)(C)C)CCCc1ccoc1` (stereo not shown) [tert-Butyl-(11-furan-3-yl-4,8-dimethyl-undeca-5,7-dienyloxy)-diphenyl-silane]: the activity at 25 µM amounted to 29% and the activity at 50 µM stood at 14%.

With `CCOC(=O)C=C(C)CCCc1ccoc1` [6-Furan-3-yl-3-methyl-hex-2-enoic acid ethyl ester], the activity at 25 µM is 83.7% and the activity at 50 µM was found to be 67.4%.

Consider `CC(C)(C)[Si](OCCc1ccco1)(c1ccccc1)c1ccccc1` [tert-Butyl-(2-furan-2-yl-ethoxy)-diphenyl-silane], for which the activity at 50 µM came to 47.6%.

With `CC(C)(C)[Si](OCCCCCc1ccco1)(c1ccccc1)c1ccccc1` [tert-Butyl-(5-furan-2-yl-pentyloxy)-diphenyl-silane], the activity at 50 µM was determined as 16.1%.

`CC(=CCCC(C)C=CC=C(C)CCCc1ccoc1)CO` (stereo not shown) [13-Furan-3-yl-2,6,10-trimethyl-trideca-2,7,9-trien-1-ol]: the activity at 25 µM was 83.7% and the activity at 50 µM was 61.2%.

Regarding `CC(=CC=CC(C)CCC=C(C)COC(=O)C(C)(C)C)CCCc1ccoc1` (stereo not shown) [2,2-Dimethyl-propionic acid 13-furan-3-yl-2,6,10-trimethyl-trideca-2,7,9-trienyl ester], the activity at 25 µM worked out at 45% and the activity at 50 µM was found to be 27%.

Regarding `OCC=Cc1ccoc1` [3-Furan-3-yl-prop-2-en-1-ol], the activity at 25 µM turned out to be 61.1% and the activity at 50 µM was 55.6%.

Take `CC(C)(C)[Si](OCCCSCc1ccco1)(c1ccccc1)c1ccccc1` [tert-Butyl-[3-(furan-2-ylmethylsulfanyl)-propoxy]-diphenyl-silane]: the activity at 50 µM was found to be 17.4%.

In the case of `CC(C)(C)[Si](OCCCc1ccco1)(c1ccccc1)c1ccccc1` [tert-Butyl-(3-furan-2-yl-propoxy)-diphenyl-silane], the activity at 50 µM amounted to 33.5%.

Take `CC(C)(C)[Si](OCC(O)c1ccco1)(c1ccccc1)c1ccccc1` (stereo not shown) [2-(tert-Butyl-diphenyl-silanyloxy)-1-furan-2-yl-ethanol]: the activity at 50 µM was 48.6%.
